{"source": "paper PMC11530130", "about": "“Peripherally restricted PICK1 inhibitor mPD5 ameliorates pain behaviors in murine inflammatory and neuropathic pain models” (JCI Insight, 2024)", "tested_on": "naive mice", "assay": "Conditioned place preference (CPP)", "assay_type": "in vivo, mouse", "conditions": "for locomotion during conditioning compared with PBS / time in the drug-paired compartment during the posttest compared with PBS: naive mice", "protocol": "compartment and that a single exposure of psychostimulants in the grey compartment sufficiently changes the preference towards that compartment (9-11). For further details of the setup, we refer to (10). Experiments lasted three days with exposure sessions on days one and two and a preference test on day three. On each day, animals were moved from the housing facility to the experimental room and allowed to acclimatize for at least 60 min before initiation of the experiment. mPD5 was paired with the grey compartment, known to be the least preferred compartment (10, 11). All mice from a cage were tested at the same time, but not all were given the same treatment. Mice were weighed and injected s.c. with PBS or 30 μmol/kg mPD5. For the sePP on CFA-injected mice, the injury was induced as described in “Induction of inflammatory pain (CFA model)”-section. sePP was run on day 3-5 after CFA-injection, and von Frey was performed on days 0, 2, and 5 as described in the “Mechanically-evoked pain (von Frey)”-section.\nConditioned place preference.\nCPP was performed in Med-Associates square behavioral chambers fitted with beam-break movement detection. Chambers are split in two (27.3 x 13.5 cm each) with a red Plexiglas wall (allowing penetrance of the beams) and a predictable-preference design. Least-preferred compartment: white walls + floor and a transparent lid. Preferred compartment: horizontal grey and black stripes on the wall and lid with a light grey upside-down Lego® floor. Mice can freely move between the two compartments through a 4x4 cm opening in the separating wall during pretest and posttest but are confined to one compartment during conditionings.\nPretest (DAY 1): To test the basal preference of the mice, they were placed in the chamber to freely move between the two compartments for 30 min. Time spent in each compartment was […]\ncompartment was used to define three even groups.\nConditioning (DAY 2-9): Mice were injected s.c. with PBS, morphine (10 mg/kg) (RH Pharmacy, Denmark, Vnr. 475249), or 10 μmol/kg mPD5 immediately before being placed in and confined to the appropriate compartment for 40 min. Drug was paired to the least-preferred compartment, conditioning was alternated so that mice were never placed in the same compartment two days in a row, and the day on which they were exposed to drug was […]\nPreference test (DAY 10): Mice were allowed to freely move between the two compartments […]\nUltrasonic vocalisation (USV) recordings.\nMice were left in Med-Associates square behavioral chambers (27 cm x 27 cm) to freely roam around for 60 min, four days in a row. The first two days were for habituation, but on the third and fourth days, USV recordings were performed using an Avisoft UltraSoundGate 416Hb recording interface (Model CM16-CMPA, Avisoft Bioacoustics, Germany) at a sampling rate of 250,000 Hz in 16-bit format kindly loaned by Morgan Thomsen and Simone Tonetto (Department of Neuroscience, University of Copenhagen, Copenhagen). On day three, both control and SNI mice were placed directly in the chambers and recorded for 60 min. On day four, control mice were injected s.c. with PBS, and SNI mice were injected with either 10 μmol/kg mPD5 or PBS immediately before being placed in the chambers and recorded for 60 min. The recordings were analyzed using the Avisoft SASLab Pro software (Version 5.02.07, Avisoft Bioacoustics) as described in (12), applying a fast fourier transformation (FFT) (1024 FTT length, 100% frame size, Blackman window, and 87.5% time window overlap).\nSpectrograms were produced at a frequency resolution of 244 Hz and a time resolution of 0.512 ms. Spectrogram analysis was performed using an automatic whistle-tracking algorithm with an element separation threshold of -45 dB, 1 ms minimal duration, and a hold time of 10 ms.", "note": "“And” between values parts separate entries of the source, which are not always exact repeats. Identical values can stand only once.", "data": [{"compound": "CCCCCCCCCCCCCC(=O)N(CCOCCOCCC(=O)N[C@@H](Cc1c[nH]cn1)C(=O)N[C@@H](Cc1c[nH]c2ccccc12)C(=O)N[C@@H](CC(C)C)C(=O)N[C@@H](CCCCN)C(=O)N[C@H](C(=O)O)C(C)C)CCOCCOCCC(=O)N[C@@H](Cc1c[nH]cn1)C(=O)N[C@@H](Cc1c[nH]c2ccccc12)C(=O)N[C@@H](CC(C)C)C(=O)N[C@@H](CCCCN)C(=O)N[C@H](C(=O)O)C(C)C", "note": "[mPD5, myristoyl-NPEG4-(HWLKV)2]", "values": [{"measurement": "Conditioned place preference, Fig 6O, individual mice", "setting": "10 umol/kg", "value": "422.4 and 657.8 and 145.75 and 377.8 and 709.7 and 623.7 and 240.55 and 244.05"}, {"measurement": "CPP conditioning session value, Fig 6N, individual mice", "setting": "Cond1, 10 umol/kg", "value": "2308.61 and 1809.85 and 2224.56 and 2674.86 and 871.493 and 1226.84 and 1378.23 and 2217.21"}, {"measurement": "CPP conditioning session value, Fig 6N, individual mice", "setting": "Cond2, 10 umol/kg", "value": "1180.49 and 1059.56 and 1212.87 and 2147.54 and 783.988 and 1076.18 and 1174.28 and 2455.85"}, {"measurement": "CPP conditioning session value, Fig 6N, individual mice", "setting": "Cond3, 10 umol/kg", "value": "1906.76 and 766.515 and 1139.87 and 2374.29 and 1205.41 and 1378.46 and 1356.35 and 1697.51"}, {"measurement": "CPP conditioning session value, Fig 6N, individual mice", "setting": "Cond4, 10 umol/kg", "value": "2079.11 and 1457.65 and 2495.22 and 2149.64 and 1597.67 and 2463.25 and 958.529 and 1951.51"}, {"measurement": "locomotion during conditioning compared with PBS", "setting": "s.c. 10 μmol/kg", "value": "did not affect locomotion"}, {"measurement": "time in the drug-paired compartment during the posttest compared with PBS", "setting": "s.c. 10 μmol/kg", "value": "did not"}]}, {"compound": "CN1CC[C@]23c4c5ccc(O)c4O[C@H]2[C@@H](O)C=C[C@H]3[C@H]1C5", "note": "[morphine]", "values": [{"measurement": "Conditioned place preference, Fig 6O, individual mice", "setting": "10 mg/kg", "value": "641.2 and 758.05 and 523.1 and 617.25 and 422.75 and 543.85 and 370.9 and 516.75"}, {"measurement": "CPP conditioning session value, Fig 6N, individual mice", "setting": "Cond1, 10 mg/kg", "value": "9137.98 and 12057.9 and 7914.76 and 12165.9 and 13969.3 and 7487.52 and 2666.42 and 10528.9"}, {"measurement": "CPP conditioning session value, Fig 6N, individual mice", "setting": "Cond2, 10 mg/kg", "value": "15370.1 and 15969.7 and 11493.6 and 16698.2 and 17811.8 and 8242.22 and 9139.38 and 16599.9"}, {"measurement": "CPP conditioning session value, Fig 6N, individual mice", "setting": "Cond3, 10 mg/kg", "value": "15699.6 and 17306.6 and 14219.9 and 18863.2 and 19954.9 and 11799.1 and 7739.36 and 18695.7"}, {"measurement": "CPP conditioning session value, Fig 6N, individual mice", "setting": "Cond4, 10 mg/kg", "value": "14707.1 and 15254.9 and 15074.4 and 17950.9 and 21599.6 and 11535.1 and 8924.2 and 17697.5"}, {"measurement": "locomotion during conditioning compared with PBS", "setting": "s.c. 10 mg/kg", "value": "significantly increased locomotion"}, {"measurement": "time in the drug-paired compartment during the posttest compared with PBS", "setting": "s.c. 10 mg/kg", "value": "significantly more time in the drug-paired compartment"}]}]}
